Results on one substance are retold here after patent US7442680B2, “Inotropic and diuretic effects of GLP-1 and GLP-1 agonists” (Amylin Pharmaceuticals, Inc., priority 1998, dated 2008).

The conditions of assay [1]: cited from earlier work.
For assay [2] the following is noted: administered through the jugular vein; cited from earlier work.
Assay [3] concerns Harlan Sprague Dawley rats. The assay is described as follows: Diuretic effects of GLP-1 or exendin in anesthetized rats (urine flow, sodium excretion, urinary potassium). It counts as in vivo, rat. As to conditions: intravenous bolus. The method, then:
In Vivo Studies in Anesthetized rats: Male, Harlan Sprague Dawley rats were housed at 23±1° C. in a 12:12 hour light:dark cycle (experiments being performed during the light cycle) and were fed and watered ad libitum (Diet LM-485, Teklad, Madison, Wis.). Animals weighing 325-375 gms were fasted for ˜20 hours prior to experimentation.
Surgical preparation: The preparation used here was as described in Young et al., (Drug Dev Res. 37:231-248, 1996), but modified by the addition of unilateral ureteral cannulation. Anesthesia was induced with 5% halothane, maintained with 2% halothane during surgery and with 0.7 to 1% thereafter. […] Colonic temperature was measured and controlled using a thermistor probe/controller (Model 73A, YSI, Yellow Springs, Ohio) and a heated operating table. Signals for mean arterial pressure were periodically sampled at 1 Hz with 12 bit precision (DataTranslation DT2801A) and recorded (Labtech Notebook).
Observations are expressed as the percent of baseline, defined as the mean of measurements made in the 30 min prior to starting peptide or vehicle infusion. Data are expressed as mean±SEM. n=5-6.
Measurements: Samples of arterial blood (160 μl) were collected periodically and samples of urine were collected every 15 min. […] Unilateral urine flow was measured by weighing the 15-minute output of the cannulated ureter. […]

Assay [4] has as its system Harlan Sprague Dawley rats. In words: Arterial blood pressure and dP/dt in conscious rats by telemetry. The assay is classed as in vivo, rat. As to conditions: single intraperitoneal injection. From the text:
Insertion of Transducers: Male, Harlan Sprague Dawley rats were anesthetized with halothane and the abdominal aorta exposed after laparotomy. According to procedures detailed in the “Pressure Telemetry” manual from Data Sciences Inc., pressure transducer/transmitters were secured in place on the abdominal wall with the catheter tip in the abdominal aorta ˜2 mm above bifurcation. Following closure, the animals then recovered to allow at least 7 days of stable recordings. Baseline data were collected during the 7+days after surgery.
Measurement of blood pressure and dP/dt: After obtaining a stable baseline, rats received an intraperitoneal (ip) injection of GLP-1, exendin or vehicle alone (NaCl). The transmitted signals were recorded via telemetry and stored on a personal computer. Rate of pressure change, dP/dt, was calculated by software provided by Data Sciences.
GLP-1: Animals received a single intraperitoneal (ip) injection of saline or GLP-1 (100 μl), n=7-8.

Where two headings read alike, the source gives them in different places. Where no end group is shown, it is not given here.

“His Ala Glu Gly Thr Phe Thr Ser Asp Val Ser Ser Tyr Leu Glu Gly Gln Ala Ala Lys Glu Phe Ile Ala Trp Leu Val Lys Gly Arg-NH2 (HAEGTFTSDVSSYLEGQAAKEFIAWLVKGR-NH2; listed as Homo sapiens) [GLP-1]”: the diuretic effect result in assay [1] (intracerebroventricular administration) is given as “diuretic, antidypsogenic effect”; in assay [1] (peripheral, intraperitoneal injection), “did not have this effect”. Also, in assay [2], the “systolic and diastolic blood pressure and heart rate” value is reported as “increase”. The sodium excretion entry in assay [3] is “increased”. In addition, the “cardiac contractility (dP/dt)” value in assay [4] was “increase”. In addition, the mean arterial pressure result in assay [4] is given as “increase”.
